One assay concerns M. avium. The note with it: incubation of M. avium with antibiotic; cited from earlier work.
Assay [1] has as its system Mycobacterium avium subsp hominissuis (MAH) MAC104 strain. The assay can be described thus: MAH lung infection in C57BL/6 mice, intranasal treatment. The note with it: 3 weeks. In kind it is in vivo.
Assay [2] has as its system M. avium 104. The note with it: 100 mcg/mL.
The test system of the next assay is M. abscessus 105. The note with it: 100 mcg/mL.
Assay [3] deals with M. avium 104. The note with it: THP-1 human macrophages, 20 mcg/mL.
The subject of assay [4] is M. avium 104. The note with it: THP-1 human macrophages, 200 mcg/mL.

Read-outs that look alike come from different tables or passages of the source.

`[H]/N=C(/N)N[C@H]1[C@H](O)[C@@H](O)[C@H](O[C@@H]2O[C@@H](C)[C@](O)(C=O)[C@H]2O[C@@H]2O[C@@H](CO)[C@H](O)[C@@H](O)[C@@H]2NC)[C@@H](N/C(N)=N\[H])[C@@H]1O` [streptomycin]: the “effect on M. avium biofilm formation” value in the assay on M. avium is reported as “increase”.
With `O=C(O)c1cn(C2CC2)c2cc(N3CCNCC3)c(F)cc2c1=O` [Ciprofloxacin, ciprofloxacin], the “effect on the growth of MAH in the lungs of mice compared with saline control” value in assay [1] was “no significant effect”. Also, the “Biofilm Colonization, Time: 4 Days” value in the assay on M. avium 104 [2] is on record as 4.0 ± 0.3 × 10^7; with M. abscessus 105, 3.0 ± 0.5 × 10^7. The “Colonization in macrophages, Time: 4 days” value with M. avium 104 [3] is reported as 1.1 ± 0.4 × 10^4; in the assay on M. avium 104 [4], 5.0 ± 0.3 × 10^4.
With `CC1(C)S[C@@H]2[C@H](NC(=O)[C@H](N)c3ccccc3)C(=O)N2[C@H]1C(=O)O` [ampicillin], in the assay on M. avium, the “effect on M. avium biofilm formation” value was “no effect on biofilm”.

The values are drawn from patent US11116765B2 (GRIFOLS, S.A., priority 2014, dated 2021).
